# Key:
# Test in all cases: cells
# Assay type in all cases: functional, cell-based
# HCT-116 [1] = settings: Homo sapiens, HCT-116, 120 h
# HCT-116 [2] = settings: Homo sapiens, HCT-116, 120 h; remark: listed apart in the source
# HeLa [3] = settings: Homo sapiens, 120 h
# HCT-116 [4] = settings: Homo sapiens, HCT-116, 120 h; remark: listed apart in the source
# U2OS = settings: Homo sapiens, 120 h
# DLD-1 [5] = settings: Homo sapiens, DLD-1, 120 h
# HeLa [6] = settings: Homo sapiens, 120 h; remark: listed apart in the source
# HeLa [7] = settings: Homo sapiens, 120 h; remark: listed apart in the source
# DLD-1 [8] = settings: Homo sapiens, DLD-1, 120 h; remark: listed apart in the source
# HCT-116 [9] = settings: Homo sapiens, HCT-116, 120 h; remark: listed apart in the source
# DLD-1 [10] = settings: Homo sapiens, DLD-1, 120 h; remark: listed apart in the source
# HeLa [11] = settings: Homo sapiens, 120 h; remark: listed apart in the source
compound,measurement,setting,value
CCc1cccc(CC)c1NC(=O)c1nn(C)c2c1CCc1cnc(Nc3ccc(C(=O)NC4CCN(C)CC4)cc3OC(F)(F)F)nc1-2,IC50,HCT-116 [1],1620 nM
same,IC50,HCT-116 [2],154 nM
same,IC50,HeLa [3],433 nM
same,IC50,HCT-116 [4],> 2000 nM
same,IC50,U2OS,153 nM
same,IC50,DLD-1 [5],198 nM
same,IC50,HeLa [6],> 2000 nM
same,IC50,HeLa [7],1330 nM
same,IC50,DLD-1 [8],1020 nM
same,IC50,HCT-116 [9],171 nM
same,IC50,DLD-1 [10],165 nM
same,IC50,HeLa [11],1720 nM

# Source: ChEMBL document CHEMBL5647693, “Molecular basis underlying resistance to Mps1/TTK inhibitors” (Oncogene, 2016)
